Assay results: patent US20180078615A1, “USE OF CCL2 TO INHIBIT ABNORMAL UTERINE BLEEDING” (UNIVERSITY OF SOUTH FLORIDA, priority 2015, published 2018)

What was measured:
[1] = test system: VSMCs; experiment: VSMC proliferation assay by BrdU incorporation; format: cell-based, human; settings: for BrdU incorporation: control 0.86±0.03
Method: VSMCs were grown in 96-well plates or 8-well chamber slides and incubated with 10^−7 M of MPA (Sigma-Aldrich) or ETO (Organon) or P4 (Sigma-Aldrich) or vehicle±rCCL2 (R&D Systems)±STAT1 inhibitor, 5′-methyl-thioadenosine (MTA; EMD Millipore) (19) for 48 or 72 h. VSMCs were then analyzed for apoptosis by an ELISA based apoptosis kit (Roche) or cleaved-caspase 3 immunostaining. VSMC proliferation was measured by BrdU incorporation Kit (Cell Signaling). (See further details in SI Materials and Methods).
VSMCs were thawed and cultured in T-75 cell culture flasks in medium 231 (M231; Life Technologies) with smooth muscle growth supplement (5% FBS; 2 ng/mL human basic fibroblast growth factor, 0.5 ng/mL human epidermal growth factor, 5 ng/mL heparin, 0.2 μg/mL insulin and 5 μg/mL BSA; Life Technologies) with 100 U/mL penicillin, 100 μg/mL streptomycin, and 0.25 μg/mL fungizone. Confluent VSMCs were washed twice with 1×PBS to remove residual serum, and then passaged (5,000 cells per well) in 96-well plates and incubated in parallel in M231 with 1% charcoal striped FBS with 0.1% ethanol (vehicle, control), 10^−7 M MPA (Sigma-Aldrich), 10^−7 M ETO (Organon), or 10^−7 M P4 (Sigma-Aldrich)±rCCL2 (monocyte chemotactic protein-1; R&D Systems)±STAT1 inhibitor, 5′-methyl-thioadenosine (MTA; EMD Millipore) for 48 or 72 h.
BrdU (Cell Signaling) 1× in 100-μL M231 was added to each well during the final 24 h of incubation. At the end of 48- or 72-h incubation period, medium was removed and the wells washed twice with ice-cold PBS. VSMC proliferation was measured using BrdU cell proliferation Kit (Cell Signaling) at room temperature. Cells was incubated in 100 μL per well of the fixing/denaturing solution for 30 min, and then replaced by 100 μL per well BrdU detection antibody solution for 1 h. Following three rinses with wash buffer, plates were incubated in HRP-conjugated secondary antibody (100 μL per well) for 30 min. After three additional rinses with wash buffer, tetramethylbenzidine substrate solution (100 μL per well) was added for 20 min and the reaction stopped by adding 100 μL per well STOP solution. Absorbance was measured at 450 nm using Spectra Max190 microplate reader (Molecular Devices) to detect BrdU incorporation in each well.

[2] = test system: endometrial VSMCs; experiment: αSMA and PCNA double-immunostaining of endometrium of oophorectomized guinea pigs (OVX-GPs); format: in vivo, guinea pig; settings: 21-d time-release pellets, mean±SEM
Text: After receiving written informed consent at New York University under Institutional Review Board approval, paraffin sections were derived from banked paired endometrial tissues obtained before and after Depo therapy by […] biopsy from each reproductive age woman with regular menstrual cycles during the secretory phase (n=6). Based on an established animal model for LAPC-induced AUB in humans (9), nulliparous adult female pigmented GPs (weighing 525-775 g) were used in experimental procedures conforming to National Health and Medical Research Council Guidelines of Australia and approved by the Animal Ethics Committee of The University of Western Australia. GPs (n=24) were subjected to bilateral OVX and given subcutaneous 21-d time-release pellets (Innovative Research of America) containing MPA (50 mg/d; n=6) or 17β-Estradiol (E2) (0.1 mg/d; n=6), both MPA and E2 (n=6), or no pellets (n=6). On day 20 of exposure to the pellets, GPs were killed with pentobarbital and uterine tissues fixed in 10% formalin and processed for paraffin embedding. In vitro experiments used aortic VSMCs from premenopausal women (n=2) (Life Technologies). Paraffin sections (5 μm) from paired pre- vs. post-Depo treated human or GP endometria were deparaffinized, boiled in citrate buffer (pH: 6.0) and then incubated in methanol containing 3% H2O2. Following 10% normal horse serum blocking (Vector Labs), slides were incubated overnight at 4° C. with mouse anti-PCNA monoclonal antibody (EMD Millipore). After several rinses in Tris-buffered saline containing 0.1% tween-20 (TBS-T; pH 7.6) slides were then incubated with biotinylated anti-mouse IgG (Vector Labs) for 30 min, then with a streptavidin-peroxidase complex (Elite ABC kit; Vector Labs) for 30 min and with diaminobenzidine (DAB; Vector Labs) for 3 min. […] Slides were counterstained by Hematoxylin and evaluated by histological scoring (HSCORE), as described previously (34). (See details for HSCORE evaluation for αSMA immunoreactivity and PCNA quantitation in SI Materials and Methods). Staining intensity for α-SMA was semiquantitatively evaluated by Q:1 HSCORE (1). […] An HSCORE value was determined for each specimen by using the formula HSCORE=ΣPi (i+1), where Pi is the percentage of stained cells in each intensity category (i.e., i=1, 2, or 3). Quantitation of PCNA immunostaining was determined by counting the number of PCNA^+ (brown) and PCNA^- cell nuclei (blue) in VSMCs (αSMA immunostained cells) and obtaining the ratio of numbers of PCNA^+ cell nuclei to total αSMA^+ cells. For each slide, three different fields were evaluated microscopically at 200× magnification. Slides were evaluated at different times by two investigators blinded to tissue source, and the average HSCORE or percentage of cells with PCNA^+ nuclei to total αSMA^+ cells used.

[3] = test system: VSMCs; experiment: Transwell insert migration assay; format: cell-based, human; settings: coincubation with 10 ng/mL rCCL2, 12 h
Method: VSMCs (75,000 cells/200 μL) were suspended in M231 containing 1% charcoal striped FBS and either 0.1% ethanol (vehicle control) or the corresponding steroids and seeded onto insert wells (transwell filter with 12-μm pores; EMD Millipore). The inserts were then placed in 24-well plates containing 500 μL M231 with 1% charcoal striped FBS. After 12 h, cells remaining on the upper surface of the filter were removed with a cotton swab. Migrated cells were trypsinized, centrifuged, and resuspended in 200 μL of M231 medium. The cell suspensions were mixed with 200 μL 10% ethanol containing 0.4% Trypan blue dye and the live cell number was counted by Countess Automated Cell Counter (Invitrogen). See further details in SI Materials and Methods.
Cultured VSMCs were grown in T-75 cell culture flasks in M231 (Life Technologies) with smooth muscle growth supplement (Life Technologies) with 100 U/mL penicillin, 100 μg/mL streptomycin, 0.25 μg/mL fungizone. Confluent VSMCs were washed twice with 1×PBS to remove residual serum, and then trypsinized, resuspended (75,000 cells per 200 μL per well) in M231 with 1% charcoal striped FBS with 0.1% ethanol (vehicle, control), 10^−7 M MPA (Sigma-Aldrich), 10^−7 M ETO (Organon), or 10^−7 M P4 (Sigma-Aldrich)±rCCL2 (R&D Systems) and seeded on insert wells (transwell filter with 12-μm pores; EMD Millipore), which were then placed in 24-well plates containing 500 μL M231 with 1% charcoal striped FBS. After 12 h, cells remaining on the upper surface of the filter were removed with a cotton swab. Migrated cells attached to the lower surface of each insert or to the surface of lower wells were collected by trypsinization, followed by centrifugation and resuspension in 200 μL of M231 medium. The cell suspensions were mixed with 200 μL 10% ethanol containing 0.4% Trypan blue dye (selectively stains only dead cells blue, whereas live cells with intact cell membranes remain unstained) for 5 min. A mixture of 100 μL M231 and 100 μL 10% ethanol containing 0.4% Trypan blue dye was used as a negative control. To detect live cell numbers, 10 μL of final cell/Trypan blue dye suspension from each treatment condition was pipetted into Countess Cell Counting Chamber Slide and counted by using Countess Automated Cell Counter (Invitrogen). The counting procedure was performed in duplicate.

## 5′-methyl-thioadenosine [MTA]
[1]; 100 μm MTA with 10 ng/mL rCCL2 and MPA or ETO
  effect on rCCL2 reversal of progestin-inhibited BrdU incorporation: abolished

## C[C@]12CC[C@@H]3c4ccc(O)cc4CC[C@H]3[C@@H]1CC[C@@H]2O [E2, 17β-Estradiol]
[2]; n=6, control 11.2%±2.3
  PCNA+ endometrial VSMCs: 36.8%±2.7
[2]; n=6, control 135.2±26.0
  αSMA HSCORE: 212.7±14.6

## rCCL2: recombinant chemokine (C-C motif) ligand 2 (monocyte chemotactic protein-1; R&D Systems)
[1]; 10 ng/mL rCCL2 added to 10^−7 M ETO
  effect on inhibition of BrdU incorporation by ETO: reversed
[1]; 10 ng/mL rCCL2 added to 10^−7 M MPA
  effect on inhibition of BrdU incorporation by MPA: reversed
[1]; rCCL2 1 ng/mL
  BrdU incorporation: 1.05±0.05
[1]; rCCL2 10 ng/mL
  BrdU incorporation: 1.21±0.05
[3]
  effect on inhibition of VSMC migration by ETO: did not reverse
  effect on inhibition of VSMC migration by MPA: partially reversed
  effect on inhibition of VSMC migration by P4: did not reverse
